Earlier results as cited in patent publication US11167054B2, “Activated disinfectant hydrogen peroxide compositions” (LONZA, LLC, priority 2014, dated 2021).
Like-named read-outs stand apart in the source and are kept apart here.

Experiments:
[1] = 6 wt. % hydrogen peroxide solution, 5 minutes contact time
[2] = 6000 ppm (0.6 wt. %) hydrogen peroxide solution, 5 minute contact time

OO [hydrogen peroxide]
Log reduction against Staphylococcus Aureus (Staphylococcus Aureus; [1]): ~3 Log
log reduction against Staphylococcus Aureus (Staphylococcus Aureus; [2]): ~1 log
Log reduction against Pseudomonas Aeruginosa (Pseudomonas Aeruginosa; [1]): < 2 Log
Log reduction against Pseudomonas Aeruginosa (Pseudomonas Aeruginosa; [2]): < 1 Log
